Results from PubChem BioAssay AID743330 (NMMLSC, 2014).

Tests used:
Assay in all cases: GTPase panel EC50 shift with labeled GTP level, profiling panel, mechanism study, biochemical, four GTPases, bead flow cytometry (AID 743330)
Conditions in all cases: bead-based flow cytometry, fluorescent GTP binding to GTPases
Cdc42 = target: Cdc42
Cdc42 mutant = target: Cdc42 mutant
Ras = target: Ras
Rab7 = target: Rab7

| EC50 (Cdc42; EC50 at 25 nM fluorescent GTP) [nM] | EC50 (Cdc42; EC50 at 100 nM fluorescent GTP) [nM] | EC50 (Cdc42 mutant; EC50 at 25 nM fluorescent GTP) [nM] | EC50 (Cdc42 mutant; EC50 at 100 nM fluorescent GTP) [nM] | EC50 (Ras; EC50 at 25 nM fluorescent GTP) [nM] | EC50 (Ras; EC50 at 100 nM fluorescent GTP) [nM] | EC50 (Rab7; EC50 at 25 nM fluorescent GTP) [nM] | EC50 (Rab7; EC50 at 100 nM fluorescent GTP) [nM] | SMILES |
| --- | --- | --- | --- | --- | --- | --- | --- | --- |
| 248 | 1040 | 120 | 977 | 66 | 444 | 55 | 479 | CC1(C)Cc2c(sc(NC(=S)NC(=O)c3ccc(F)cc3)c2C(=O)O)CO1 |
| – | 20 | 12 | 27 | 6 | 23 | 8 | 29 | CCC1(C)Cc2c(sc(NC(=S)NC(=O)c3ccccc3)c2C(=O)O)CO1 (stereo not given) |
